Laboratory results from patent publication US20230139171A1 (SITA Information Networking Computing UK Limited, priority 2019, published 2023).

Key:
Type in all cases: cell-based
human TLR7 = target: T1, human TLR7 (Homo sapiens, UniProt Q9NYK1); experiment: TLR7 inhibition reporter assay (HEK-Blue cells, SEAP reporter, gardiquimod stimulation); settings: HEK-Blue cells overexpressing human TLR7, SEAP reporter, gardiquimod 7.5 μM; read-out: TLR7 IC50
T1 construct: host or cells: HEK-Blue cells
T1 sequence (Q9NYK1 27-1049): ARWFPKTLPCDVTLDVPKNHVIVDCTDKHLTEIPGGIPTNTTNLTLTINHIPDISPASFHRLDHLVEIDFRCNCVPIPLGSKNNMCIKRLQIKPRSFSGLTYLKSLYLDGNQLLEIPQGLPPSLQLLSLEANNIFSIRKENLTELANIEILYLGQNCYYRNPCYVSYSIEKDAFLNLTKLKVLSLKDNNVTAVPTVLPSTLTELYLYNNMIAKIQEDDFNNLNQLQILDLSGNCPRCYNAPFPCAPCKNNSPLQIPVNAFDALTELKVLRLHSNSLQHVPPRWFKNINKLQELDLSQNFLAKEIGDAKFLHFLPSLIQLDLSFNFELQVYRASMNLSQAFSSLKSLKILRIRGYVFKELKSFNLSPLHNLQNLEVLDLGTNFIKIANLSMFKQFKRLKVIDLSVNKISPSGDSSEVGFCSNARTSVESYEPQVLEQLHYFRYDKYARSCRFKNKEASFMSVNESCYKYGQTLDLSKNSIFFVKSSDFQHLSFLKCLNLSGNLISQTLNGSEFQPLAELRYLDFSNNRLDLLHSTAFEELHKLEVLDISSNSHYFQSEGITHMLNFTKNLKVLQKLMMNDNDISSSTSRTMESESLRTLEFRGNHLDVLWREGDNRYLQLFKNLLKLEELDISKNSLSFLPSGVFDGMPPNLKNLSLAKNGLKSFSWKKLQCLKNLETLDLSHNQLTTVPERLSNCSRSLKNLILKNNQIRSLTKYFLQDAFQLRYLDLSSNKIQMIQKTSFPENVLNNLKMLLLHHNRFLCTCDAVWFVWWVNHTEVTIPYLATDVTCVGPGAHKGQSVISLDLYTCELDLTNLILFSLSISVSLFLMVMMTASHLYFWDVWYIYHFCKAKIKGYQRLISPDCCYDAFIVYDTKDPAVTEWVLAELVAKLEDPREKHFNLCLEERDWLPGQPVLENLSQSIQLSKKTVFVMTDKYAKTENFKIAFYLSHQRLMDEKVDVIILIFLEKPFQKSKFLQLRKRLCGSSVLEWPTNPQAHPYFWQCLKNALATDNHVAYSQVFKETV
Summary of the method: (§1)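 Dose–response from 0.05 nM to 50 μM was run in HEK-Blue human TLR7, TLR8 and TLR9 reporter cells. After 30 min at room temperature with compound, ligand was added (TLR7 gardiquimod 7.5 μM; TLR8 R848 15.9 μM; TLR9 ODN2006 5 nM) and SEAP measured next day, at 22 h.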

human TLR8 = target: T2, human TLR8 (Homo sapiens, UniProt Q9NR97); experiment: TLR8 inhibition reporter assay (HEK-Blue cells, SEAP reporter, R848 stimulation); settings: HEK-Blue cells overexpressing human TLR8, SEAP reporter, R848 15.9 μM; read-out: TLR8 IC50
T2 construct: host or cells: HEK-Blue cells
T2 sequence (Q9NR97 27-1041): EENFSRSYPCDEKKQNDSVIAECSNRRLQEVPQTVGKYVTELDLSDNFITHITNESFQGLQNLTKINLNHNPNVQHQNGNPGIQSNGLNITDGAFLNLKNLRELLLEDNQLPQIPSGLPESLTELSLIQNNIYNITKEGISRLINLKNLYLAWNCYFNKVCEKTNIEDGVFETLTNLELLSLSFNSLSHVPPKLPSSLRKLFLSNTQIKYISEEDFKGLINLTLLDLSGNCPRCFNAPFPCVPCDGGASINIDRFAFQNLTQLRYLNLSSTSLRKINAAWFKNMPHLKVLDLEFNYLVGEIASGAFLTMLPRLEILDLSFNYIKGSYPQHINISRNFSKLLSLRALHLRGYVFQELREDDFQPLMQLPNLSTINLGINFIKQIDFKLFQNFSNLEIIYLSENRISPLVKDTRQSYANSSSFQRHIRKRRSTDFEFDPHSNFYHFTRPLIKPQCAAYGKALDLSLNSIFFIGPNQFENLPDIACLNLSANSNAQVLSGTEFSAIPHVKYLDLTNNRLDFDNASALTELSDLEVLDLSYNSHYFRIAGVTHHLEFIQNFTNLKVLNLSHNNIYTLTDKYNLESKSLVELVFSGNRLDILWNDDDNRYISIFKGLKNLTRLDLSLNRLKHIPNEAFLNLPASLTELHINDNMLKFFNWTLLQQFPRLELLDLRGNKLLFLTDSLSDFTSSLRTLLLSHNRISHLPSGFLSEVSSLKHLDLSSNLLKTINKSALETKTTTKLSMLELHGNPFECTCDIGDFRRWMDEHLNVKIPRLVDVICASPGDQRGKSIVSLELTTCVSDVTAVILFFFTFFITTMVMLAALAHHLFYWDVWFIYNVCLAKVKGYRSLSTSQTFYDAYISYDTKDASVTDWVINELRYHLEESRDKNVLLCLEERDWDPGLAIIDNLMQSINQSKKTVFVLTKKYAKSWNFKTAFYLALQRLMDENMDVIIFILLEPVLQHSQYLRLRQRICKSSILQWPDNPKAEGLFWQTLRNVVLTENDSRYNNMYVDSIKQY
Summary of the method: as §1

human TLR9 = target: T3, human TLR9 (Homo sapiens, UniProt Q9NR96); experiment: TLR9 inhibition reporter assay (HEK-Blue cells, SEAP reporter, ODN2006 stimulation); settings: HEK-Blue cells overexpressing human TLR9, SEAP reporter, ODN2006 5 nM
T3 construct: host or cells: HEK-Blue cells
T3 sequence (Q9NR96 26-1032): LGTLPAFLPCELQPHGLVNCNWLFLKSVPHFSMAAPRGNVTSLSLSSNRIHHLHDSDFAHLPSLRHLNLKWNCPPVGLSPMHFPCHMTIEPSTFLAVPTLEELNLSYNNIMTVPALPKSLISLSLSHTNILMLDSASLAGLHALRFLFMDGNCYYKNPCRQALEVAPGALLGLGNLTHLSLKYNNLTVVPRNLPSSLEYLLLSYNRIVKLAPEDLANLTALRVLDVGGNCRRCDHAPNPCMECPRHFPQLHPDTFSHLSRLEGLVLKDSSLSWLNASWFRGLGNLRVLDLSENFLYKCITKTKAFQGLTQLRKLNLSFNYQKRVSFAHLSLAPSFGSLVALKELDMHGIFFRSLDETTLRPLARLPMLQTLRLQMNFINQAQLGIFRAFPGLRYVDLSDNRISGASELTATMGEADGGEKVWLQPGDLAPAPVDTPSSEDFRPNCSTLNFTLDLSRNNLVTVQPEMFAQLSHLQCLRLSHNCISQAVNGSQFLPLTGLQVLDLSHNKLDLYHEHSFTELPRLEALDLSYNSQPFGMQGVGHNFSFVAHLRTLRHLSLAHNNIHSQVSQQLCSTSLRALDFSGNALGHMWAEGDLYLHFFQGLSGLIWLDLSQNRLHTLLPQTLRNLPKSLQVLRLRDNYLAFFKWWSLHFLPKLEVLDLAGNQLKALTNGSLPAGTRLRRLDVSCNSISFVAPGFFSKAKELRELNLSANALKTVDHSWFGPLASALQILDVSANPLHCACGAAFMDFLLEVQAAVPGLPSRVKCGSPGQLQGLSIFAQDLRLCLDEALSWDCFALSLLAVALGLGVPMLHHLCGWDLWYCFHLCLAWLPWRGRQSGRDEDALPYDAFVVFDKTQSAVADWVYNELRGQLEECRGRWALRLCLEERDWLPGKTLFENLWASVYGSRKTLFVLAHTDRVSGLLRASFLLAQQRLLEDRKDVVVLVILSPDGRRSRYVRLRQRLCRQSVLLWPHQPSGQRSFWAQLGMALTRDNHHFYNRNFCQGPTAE
Summary of the method: as §1

IC50 (human TLR7)	IC50 (human TLR8)	IC50 (human TLR9)	Structure (SMILES)
1.5 nM	0.63 nM	17.8 µM	Cc1c(-c2[nH]c3sc(C4CCC(NCC(=O)N(C)C)CC4)nc3c2C(C)C)cn2ncnc2c1C (single isomer, unassigned) [Example 204, 2-((4-(5-(7,8-dimethyl-[1,2,4]triazolo[1,5-a]pyridin-6-yl)-6-isopropyl-4H-pyrrolo[3,2-d]thiazol-2-yl)cyclohexyl)amino)-N,N-dimethylacetamide]
6.66 nM	2.33 nM	21.5 µM	Cc1c(-c2[nH]c3sc(C4CCC(NCC(=O)N(C)C)CC4)nc3c2C(C)C)cn2ncnc2c1C (single isomer, unassigned) [Example 205, 2-((4-(5-(7,8-dimethyl-[1,2,4]triazolo[1,5-a]pyridin-6-yl)-6-isopropyl-4H-pyrrolo[3,2-d]thiazol-2-yl)cyclohexyl)amino)-N,N-dimethylacetamide]
1 nM	0.52 nM	20 µM	CNC(=O)CNC1CCC(c2nc3c(C(C)C)c(-c4cn5ncnc5c(C)c4C)[nH]c3s2)CC1 (single isomer, unassigned) [Example 208, 2-((4-(5-(7,8-dimethyl-[1,2,4]triazolo[1,5-a]pyridin-6-yl)-6-isopropyl-4H-pyrrolo[3,2-d]thiazol-2-yl)cyclohexyl)amino)-N-methylacetamide]
0.32 nM	0.14 nM	4.17 µM	CNC(=O)CNC1CCC(c2nc3c(C(C)C)c(-c4cn5ncnc5c(C)c4C)[nH]c3s2)CC1 (single isomer, unassigned) [Example 209, 2-((4-(5-(7,8-dimethyl-[1,2,4]triazolo[1,5-a]pyridin-6-yl)-6-isopropyl-4H-pyrrolo[3,2-d]thiazol-2-yl)cyclohexyl)amino)-N-methylacetamide]
0.62 nM	0.63 nM	7.39 µM	Cc1c(-c2[nH]c3sc(C4CCC(N5CCOCC5)CC4)nc3c2C(C)C)cn2ncnc2c1C (single isomer, unassigned) [Example 212, 4-(4-(5-(7,8-dimethyl-[1,2,4]triazolo[1,5-a]pyridin-6-yl)-6-isopropyl-4H-pyrrolo[3,2-d]thiazol-2-yl)cyclohexyl) morpholine]
4.64 nM	3.41 nM	25.5 µM	Cc1c(-c2[nH]c3sc(C4CCC(N5CCOCC5)CC4)nc3c2C(C)C)cn2ncnc2c1C (single isomer, unassigned) [Example 213, 4-(4-(5-(7,8-dimethyl-[1,2,4]triazolo[1,5-a]pyridin-6-yl)-6-isopropyl-4H-pyrrolo[3,2-d]thiazol-2-yl)cyclohexyl) morpholine]
1.37 nM	0.39 nM	10.3 µM	Cc1c(-c2[nH]c3sc(C4CCC(NCC5(S(C)(=O)=O)CC5)CC4)nc3c2C(C)C)cn2ncnc2c1C (single isomer, unassigned) [Example 214, 4-(5-(7,8-dimethyl-[1,2,4]triazolo[1,5-a]pyridin-6-yl)-6-isopropyl-4H-pyrrolo[3,2-d]thiazol-2-yl)-N-((1-(methylsulfonyl)cyclopropyl)methyl) cyclohexan-1-amine]
2.3 nM	6 nM	15 µM	Cc1c(-c2[nH]c3sc(C4CCC(NCC5(S(C)(=O)=O)CC5)CC4)nc3c2C(C)C)cn2ncnc2c1C (single isomer, unassigned) [Example 215, 4-(5-(7,8-dimethyl-[1,2,4]triazolo[1,5-a]pyridin-6-yl)-6-isopropyl-4H-pyrrolo[3,2-d]thiazol-2-yl)-N-((1-(methylsulfonyl)cyclopropyl)methyl) cyclohexan-1-amine]
0.72 nM	1.02 nM	6.52 µM	Cc1c(-c2[nH]c3sc(C4CCC(N5CCC5)CC4)nc3c2C(C)C)cn2ncnc2c1C (single isomer, unassigned) [Example 216, 2-(4-(azetidin-1-yl)cyclohexyl)-5-(7,8-dimethyl-[1,2,4]triazolo[1,5-a]pyridin-6-yl)-6-isopropyl-4H-pyrrolo[3,2-d]thiazole]
2.41 nM	5.3 nM	5.87 µM	Cc1c(-c2[nH]c3sc(C4CCC(N5CCC5)CC4)nc3c2C(C)C)cn2ncnc2c1C (single isomer, unassigned) [Example 217, 2-(4-(azetidin-1-yl)cyclohexyl)-5-(7,8-dimethyl-[1,2,4]triazolo[1,5-a]pyridin-6-yl)-6-isopropyl-4H-pyrrolo[3,2-d]thiazole]
1.44 nM	18.6 nM	35.9 µM	Cc1c(-c2[nH]c3sc(C4CCC(N5CC(F)(F)C5)CC4)nc3c2C(C)C)cn2ncnc2c1C (single isomer, unassigned) [Example 218, 2-(4-(3,3-difluoroazetidin-1-yl)cyclohexyl)-5-(7,8-dimethyl-[1,2,4]triazolo[1,5-a]pyridin-6-yl)-6-isopropyl-4H-pyrrolo[3,2-d]thiazole]
